Assay [1] addresses Plasminogen (Homo sapiens, UniProt P00747). Kind of assay: Inhibition of plasmin by dixon plot method.
Assay [2] has as its target Plasma kallikrein (Homo sapiens, UniProt P03952). Kind of assay: Inhibition of plasma kallikrein by dixon plot method.
Assay [3] deals with Prothrombin (Homo sapiens, UniProt P00734). Kind of assay: Inhibition of thrombin by dixon plot method.
Assay [4] deals with Coagulation factor X (Homo sapiens, UniProt P00742). Nature of the assay: Inhibition of factor 10a by dixon plot method.
Chain of Coagulation factor X (P00742 41-179 limits assumed): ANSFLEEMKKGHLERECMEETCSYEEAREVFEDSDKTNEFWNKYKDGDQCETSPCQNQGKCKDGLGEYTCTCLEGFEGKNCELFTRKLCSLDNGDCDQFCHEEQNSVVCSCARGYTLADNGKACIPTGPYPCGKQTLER
Chain of Coagulation factor X (P00742 235-488 limits assumed): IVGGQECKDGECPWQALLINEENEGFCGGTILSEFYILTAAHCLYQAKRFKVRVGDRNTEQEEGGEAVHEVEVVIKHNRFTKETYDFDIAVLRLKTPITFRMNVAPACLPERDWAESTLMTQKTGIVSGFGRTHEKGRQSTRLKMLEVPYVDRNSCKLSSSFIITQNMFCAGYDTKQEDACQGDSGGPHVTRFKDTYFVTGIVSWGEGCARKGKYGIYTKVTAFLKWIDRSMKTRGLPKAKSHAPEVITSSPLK
The target in assay [5] is Vitamin K-dependent protein C (Homo sapiens, UniProt P04070). Kind of assay: Inhibition of activated protein C by dixon plot method.
Chain of Vitamin K-dependent protein C (P04070 43-197 limits assumed): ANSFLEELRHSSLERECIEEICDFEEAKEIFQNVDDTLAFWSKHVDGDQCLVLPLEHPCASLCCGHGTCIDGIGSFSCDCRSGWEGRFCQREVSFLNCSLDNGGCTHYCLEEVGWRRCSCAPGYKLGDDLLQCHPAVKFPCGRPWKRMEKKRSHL
Chain of Vitamin K-dependent protein C (P04070 212-461 limits assumed): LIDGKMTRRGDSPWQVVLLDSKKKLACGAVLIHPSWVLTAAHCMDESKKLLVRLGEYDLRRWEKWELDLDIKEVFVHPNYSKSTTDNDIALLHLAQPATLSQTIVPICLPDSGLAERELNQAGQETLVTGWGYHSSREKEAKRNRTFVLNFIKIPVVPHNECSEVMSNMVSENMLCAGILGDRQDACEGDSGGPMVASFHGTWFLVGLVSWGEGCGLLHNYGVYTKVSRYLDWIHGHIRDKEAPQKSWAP

Here are results for 15 compounds from ChEMBL document CHEMBL2016561 (J Med Chem, 2012).

Structures are written as SMILES. *1 amine or outer side, *2 acyl side, *3 side chain or, on linkers, in order; H or OH if unused. Where a SMILES comes first, the peptide text is derived from it. [ ]: non-standard residue; d: D form. The star is where a group is joined. X1 = O=C1[C@@H](CCC(=O)[*:2])CCC[C@H]1N[*:1]; Met(O2) = CS(=O)(=O)CC[C@H](N)C(=O)O; Cbz = O=C(OCc1ccccc1)* Where only a bound is given, the exact number is not on record here.

Chain of Plasma kallikrein (P03952 20-390 limits assumed): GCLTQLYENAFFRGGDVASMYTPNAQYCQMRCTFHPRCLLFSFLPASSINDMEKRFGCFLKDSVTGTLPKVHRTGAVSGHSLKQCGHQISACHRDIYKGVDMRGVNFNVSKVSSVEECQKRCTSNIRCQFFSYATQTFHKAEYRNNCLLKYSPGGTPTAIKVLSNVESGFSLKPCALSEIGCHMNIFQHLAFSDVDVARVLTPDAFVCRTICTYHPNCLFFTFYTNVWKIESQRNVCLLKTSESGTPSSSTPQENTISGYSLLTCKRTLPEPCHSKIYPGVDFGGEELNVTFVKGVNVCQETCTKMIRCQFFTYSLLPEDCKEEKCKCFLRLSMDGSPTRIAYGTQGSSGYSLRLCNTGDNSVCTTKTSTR
Chain of Plasma kallikrein (P03952 391-638 limits assumed): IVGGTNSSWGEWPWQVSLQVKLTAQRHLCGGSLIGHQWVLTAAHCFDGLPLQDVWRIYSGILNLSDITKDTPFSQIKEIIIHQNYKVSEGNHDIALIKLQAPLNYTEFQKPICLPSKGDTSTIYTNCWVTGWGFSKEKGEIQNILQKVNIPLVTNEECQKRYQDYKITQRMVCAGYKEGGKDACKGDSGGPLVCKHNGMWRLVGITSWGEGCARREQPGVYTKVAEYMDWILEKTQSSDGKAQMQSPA
Chain of Plasminogen (P00747 97-580 limits assumed): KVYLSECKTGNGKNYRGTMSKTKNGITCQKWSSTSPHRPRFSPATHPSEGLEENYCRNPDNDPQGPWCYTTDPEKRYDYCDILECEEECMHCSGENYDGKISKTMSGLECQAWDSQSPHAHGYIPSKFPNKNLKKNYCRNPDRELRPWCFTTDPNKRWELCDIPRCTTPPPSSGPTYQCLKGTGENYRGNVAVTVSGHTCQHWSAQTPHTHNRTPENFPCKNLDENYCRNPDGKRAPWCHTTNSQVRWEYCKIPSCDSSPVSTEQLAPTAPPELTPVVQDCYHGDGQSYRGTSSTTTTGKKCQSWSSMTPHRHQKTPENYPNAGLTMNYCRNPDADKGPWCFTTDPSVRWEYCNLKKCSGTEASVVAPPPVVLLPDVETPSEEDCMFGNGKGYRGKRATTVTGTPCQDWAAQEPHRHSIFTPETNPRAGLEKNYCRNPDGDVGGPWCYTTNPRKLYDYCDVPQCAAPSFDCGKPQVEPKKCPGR
Chain of Plasminogen (P00747 581-810 limits assumed): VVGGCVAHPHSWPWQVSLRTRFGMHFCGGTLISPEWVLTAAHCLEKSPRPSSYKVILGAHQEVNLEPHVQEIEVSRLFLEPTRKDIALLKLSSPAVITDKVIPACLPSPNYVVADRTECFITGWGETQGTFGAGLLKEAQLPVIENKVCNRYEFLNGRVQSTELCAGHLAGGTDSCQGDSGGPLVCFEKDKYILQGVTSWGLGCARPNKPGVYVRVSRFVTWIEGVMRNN

Take `O=C(CC[C@H]1CCC[C@@H](NC(=O)[C@H](Cc2c[nH]c3ccccc23)NC(=O)[C@H](Cc2c[nH]c3ccccc23)NC(=O)OCc2ccccc2)C1=O)N[C@@H](Cc1c[nH]c2ccccc12)C(=O)N[C@@H](Cc1ccc(O)cc1)C(=O)O` (Cbz-WW[X1]WY-OH): in assay [1], the Ki was found to be 2700 nM.
As to `N=C(N)c1ccc(CNC(=O)[C@@H]2Cc3ccc(cc3)OCCCCOc3ccc(cc3)C[C@@H](NS(=O)(=O)Cc3ccccc3)C(=O)N2)cc1`, the Ki is 1.1 nM in assay [1]; 19 nM in assay [2]; 510 nM in assay [3]; 784 nM in assay [4]; 4590 nM in assay [5].
In turn, `CC(=O)N[C@@H](CCCNC(=N)N)C(=O)N[C@@H](CCS(C)(=O)=O)C(=O)N[C@@H](Cc1ccc(O)cc1)C(=O)N[C@H](C=O)CCCNC(=N)N` (Ac-R[Met(O2)]YR-aldehyde) returned a Ki in assay [1] of 3.08 nM.
Take `N=C(N)c1ccc(CNC(=O)[C@@H]2CCC(=O)NCc3cccc(c3)CNC(=O)CC[C@@H](NS(=O)(=O)Cc3ccccc3)C(=O)N2)cc1`: the Ki was 2020 nM in assay [3] and 5.1 nM in assay [5].
In the case of `CCCCCCCCNC(=O)[C@@H](Cc1ccc(OCc2ccncc2)cc1)NC(=O)[C@H]1CC[C@H](CN)CC1`, in assay [1], the affinity corresponds to a Ki of 530 nM.
Regarding `N=C(N)c1ccc(CNC(=O)[C@@H]2Cc3ccc(cc3)CNC(=O)CN3CCN(CC3)CC(=O)NCc3ccc(cc3)C[C@@H](NS(=O)(=O)Cc3ccccc3)C(=O)N2)cc1`, the Ki in assay [3] is 3520 nM; in assay [5], 3510 nM.
On the same counts, the results for `N=C(N)c1ccc(CNC(=O)[C@@H]2Cc3ccc(cc3)CNC(=O)Cc3ccc(cc3)CC(=O)NCc3ccc(cc3)C[C@@H](NS(=O)(=O)Cc3ccccc3)C(=O)N2)cc1` are 6520 nM and 12000 nM.
For the compound `N=C(N)c1ccc(CNC(=O)[C@@H]2Cc3cccc(c3)CNC(=O)CN3CCN(CC3)CC(=O)NCc3cccc(c3)C[C@@H](NS(=O)(=O)Cc3ccccc3)C(=O)N2)cc1`, the Ki in assay [2] turned out to be 25.3 nM; in assay [3], 7.2 nM; in assay [4], 21 nM; in assay [5] it was 48 nM.
`N=C(N)c1ccc(CNC(=O)[C@@H]2Cc3cccc(c3)CNC(=O)Cc3ccc(cc3)CC(=O)NCc3cccc(c3)C[C@@H](NS(=O)(=O)Cc3ccccc3)C(=O)N2)cc1`: the Ki in assay [3] is 45.4 nM; in assay [5], 564 nM.
With `N=C(N)NCc1cccc(C[C@H](NC(=O)[C@@H](CCCc2ccccc2)NS(=O)(=O)Cc2cccc(C(=O)O)c2)C(=O)NCc2ccc(C(=N)N)cc2)c1`, the Ki in assay [1] came to 0.81 nM; in assay [2] it was 0.075 nM; in assay [3] it was 667 nM; in assay [4], 42 nM; in assay [5], 0.61 nM.
Regarding `N=C(N)c1ccc(CNC(=O)[C@@H]2Cc3ccc(cc3)OCC=CCOc3ccc(cc3)C[C@@H](NS(=O)(=O)Cc3ccccc3)C(=O)N2)cc1` (mixture of isomers), the Ki in assay [3] came to 137 nM; in assay [5] it was 90 nM.
In the case of `N=C(N)c1ccc(CNC(=O)[C@@H]2Cc3cn(nn3)Cc3cccc(n3)Cn3cc(nn3)C[C@@H](NS(=O)(=O)Cc3ccccc3)C(=O)N2)cc1`, the Ki in assay [3] was found to be 6170 nM; in assay [5], 8390 nM.
On to `N=C(N)c1ccc(CNC(=O)[C@@H]2Cc3cn(nn3)Cc3cccc([n+]3[O-])Cn3cc(nn3)C[C@@H](NS(=O)(=O)Cc3ccccc3)C(=O)N2)cc1`, for which the Ki is 8.9 nM in assay [1]; 67 nM in assay [2]; 1180 nM in assay [3]; 3120 nM in assay [4]; greater than 6000 nM in assay [5].
Consider `N=C(N)c1ccc(CNC(=O)[C@@H]2Cc3cccc(c3)CNC(=O)Cc3cccc(c3)CC(=O)NCc3cccc(c3)C[C@@H](NS(=O)(=O)Cc3ccccc3)C(=O)N2)cc1`, for which the Ki in assay [3] amounted to 26.8 nM; in assay [5], 223 nM.
Regarding `N=C(N)c1ccc(CNC(=O)[C@@H]2Cc3cn(nn3)Cc3cccc(c3)Cn3cc(nn3)C[C@@H](NS(=O)(=O)Cc3ccccc3)C(=O)N2)cc1`, the Ki in assay [3] turned out to be 9490 nM; in assay [5], 3000 nM.
